Results on six molecules are retold here after patent US4568490A, “Aminopropylaminobleomycin derivatives and process for preparation thereof” (Zaidan Hojin Biseibutsu Kagaku Kenkyu Kai, priority 1981, dated 1986).

Data set [1] concerns Mycobacterium smegmatis ATCC 607. Description: Antimicrobial activity, agar plate-cylinder method. To be noted: Cu-free form; bleomycin A2 (Cu-free form) standard assumed 1,000 mcg/mg. Type of data set: cell-based. How it is done: (§1) The activity was assayed against the above test microorganisms by the method of agar plate-cylinder, assuming the potency of bleomycin A2 (Cu-free form), used as standard, to be 1,000 mcg/mg.

The subject of a further data set is Hela S3 cells. Description: Growth inhibitory activity against Hela S3 cells. Type of data set: cell-based. The settings on record: Cu-free form; Hela S3, 3 days incubation with compound. How it is done:
The percentage growth inhibition was calculated using the equation: […] wherein A is the ultimate number of cells on the third day from the addition of a test sample, B is the ultimate number of cells in the control (without the addition of test sample), and C is the number of cells on the day of addition of the test sample.

The test system of a further data set is Bacillus subtilis. The experiment in a line: Antimicrobial activity, agar plate-cylinder method. It is filed as cell-based. The settings on record: Cu-free form; bleomycin A2 (Cu-free form) standard assumed 1,000 mcg/mg. How it is done:
(1) Antimicrobial activity against Mycobacterium smegmatis ATCC 697 and Bacillus subtilis.
as §1

The subject of another data set is ICR strain mice. Description: Pulmonary toxicity (pulmonary fibrosis) in mice, intraperitoneal injection. It is filed as in vivo. The settings on record: 5 mg/kg i.p. once a day for 10 days; for Grade of pulmonary fibrosis, % / Incidence of pulmonary fibrosis, % / Incidence: number of mice suffering from pulmonary fibrosis / Grade: total score of pulmonary fibrosis/total number of test animal: autopsy after 5 weeks; for Incidence: number of mice suffering from pulmonary fibrosis: affected/total mice; for Grade: total score of pulmonary fibrosis/total number of test animal: score 0-6 points; for Grade of pulmonary fibrosis, Ratio / Incidence of pulmonary fibrosis, Ratio: reference of the ratio not stated. How it is done:
(3) Pulmonary toxicity (pulmonary fibrosis) in mice.
ICR strain mice (male; 15 weeks old; 9 mice per group) were used. Each mouse was administered with a daily dose of 5 mg/kg of the test sample by intraperitoneal injection, once a day, for 10 consecutive days. After completion of the predetermined administration, the mice were kept for 5 weeks under observation, then slaughtered, and autopsied to examine the incidence and grade of pulmonary fibrosis. The evaluation was made by comparing the number of administered mice suffering from pulmonary fibrosis and the grade of the disease.
In Tables 4A and 4B, the grade was numerically rated as follows:
1 point: Accumulation of exudate in pulmonary alveoli and fibrosis-like change in alveolar septum.
2 points: Fibrosis in several areas.
4 points: Scattered fibrosis.
6 points: Fibrosis in more than two-thirds of the total area.

In the case of `Cc1c(N)nc(C(CC(N)=O)NCC(N)C(N)=O)nc1C(=O)NC(C(=O)NC(C)C(O)C(C)C(=O)NC(C(=O)NCCc1nc(-c2nc(C(=O)NCCCN(C)CCCNCc3ccc(C#N)cc3)cs2)cs1)C(C)O)C(OC1OC(CO)C(O)C(O)C1OC1OC(CO)C(O)C(OC(N)=O)C1O)c1cnc[nH]1` (stereo not drawn) [compound 18, 3-{N--Methyl-N--[3'-(p-cyanobenzylamino)propyl]amino}propylaminoBLM], in data set [1], the “Antimicrobial potency of Cu--free compound, against Mycobacterium smegmatis ATCC 607” value is on record as 3163 mcg potency per mg. Moreover, the “50% growth inhibition concentration (ID50) of Cu--free compound against cultured Hela cell” value with Hela S3 cells came out at 1.10 µg/mL. Further, in the data set with Bacillus subtilis, the “Antimicrobial potency of Cu--free compound, against Bacillus subtilis” value amounted to 4347 mcg potency per mg. In the data set on ICR strain mice, the “Grade of pulmonary fibrosis, %” value was determined as 0%; the “Incidence of pulmonary fibrosis, %” value is listed as 0%; the “Incidence: number of mice suffering from pulmonary fibrosis” value (from here on “Incidence: number of mice suffering”) was 0/9; the “Grade: total score of pulmonary fibrosis/total number of test animal” value is 0/27. Further, in the data set with ICR strain mice, the “Grade of pulmonary fibrosis, Ratio” value worked out at 0.00 and the “Incidence of pulmonary fibrosis, Ratio” value amounted to 0.00.
`Cc1c(N)nc(C(CC(N)=O)NCC(N)C(N)=O)nc1C(=O)NC(C(=O)NC(C)C(O)C(C)C(=O)NC(C(=O)NCCc1nc(-c2nc(C(=O)NCCCN(C)CCCNCC3CCCCCCCCCCCC3)cs2)cs1)C(C)O)C(OC1OC(CO)C(O)C(O)C1OC1OC(CO)C(O)C(OC(N)=O)C1O)c1cnc[nH]1` (stereo not drawn) [compound 47, 3-{N--Methyl-N--[3'-(cyclotridecanylmethylamino)propyl]amino}propylaminoBLM]: in data set [1], the “Antimicrobial potency of Cu--free compound, against Mycobacterium smegmatis ATCC 607” value was determined as 3915 mcg potency per mg. Moreover, the “50% growth inhibition concentration (ID50) of Cu--free compound against cultured Hela cell” value with Hela S3 cells was 0.18 µg/mL. For the same molecule, the “Antimicrobial potency of Cu--free compound, against Bacillus subtilis” value with Bacillus subtilis was found to be 1760 mcg potency per mg. Also, in the data set with ICR strain mice, the “Grade of pulmonary fibrosis, %” value is recorded as 0%; the “Incidence of pulmonary fibrosis, %” value came out at 0%; the “Incidence: number of mice suffering” value is 0/9; the “Grade: total score of pulmonary fibrosis/total number of test animal” value is 0/27. In the data set with ICR strain mice, the “Grade of pulmonary fibrosis, Ratio” value stood at 0.00 and the “Incidence of pulmonary fibrosis, Ratio” value stood at 0.00.
Take `COc1ccc(COc2ccc(CN(CCCN(C)CCCNC(=O)c3csc(-c4csc(CCNC(=O)C(NC(=O)C(C)C(O)C(C)NC(=O)C(NC(=O)c5nc(C(CC(N)=O)NCC(N)C(N)=O)nc(N)c5C)C(OC5OC(CO)C(O)C(O)C5OC5OC(CO)C(O)C(OC(N)=O)C5O)c5cnc[nH]5)C(C)O)n4)n3)Cc3ccc(OCc4ccc(OC)cc4)c(OCc4ccc(OC)cc4)c3)cc2OCc2ccc(OC)cc2)cc1` (stereo not drawn) [compound 50]: in data set [1], the “Antimicrobial potency of Cu--free compound, against Mycobacterium smegmatis ATCC 607” value came to 145 mcg potency per mg. Moreover, the “50% growth inhibition concentration (ID50) of Cu--free compound against cultured Hela cell” value with Hela S3 cells amounted to 0.70 µg/mL. For the same molecule, the “Antimicrobial potency of Cu--free compound, against Bacillus subtilis” value in the data set on Bacillus subtilis amounted to 35 mcg potency per mg. For the same molecule, in the data set with ICR strain mice, the “Grade of pulmonary fibrosis, %” value was found to be 0%; the “Incidence of pulmonary fibrosis, %” value was found to be 0%; the “Incidence: number of mice suffering” value is on record as 0/9; the “Grade: total score of pulmonary fibrosis/total number of test animal” value was 0/27. In the data set with ICR strain mice, the “Grade of pulmonary fibrosis, Ratio” value is 0.00 and the “Incidence of pulmonary fibrosis, Ratio” value turned out to be 0.00.
In the case of `Cc1c(N)nc(C(CC(N)=O)NCC(N)C(N)=O)nc1C(=O)NC(C(=O)NC(C)C(O)C(C)C(=O)NC(C(=O)NCCc1nc(-c2nc(C(=O)NCCCN(C)CCCN(Cc3ccc(OCC4CCCCCCC4)cc3)Cc3ccc(OCC4CCCCCCC4)cc3)cs2)cs1)C(C)O)C(OC1OC(CO)C(O)C(O)C1OC1OC(CO)C(O)C(OC(N)=O)C1O)c1cnc[nH]1` (stereo not drawn) [compound 52, 3-{N--Methyl-N--[3'-(bis(p-cyclooctylmethyloxybenzyl)amino)propyl)amino}propylaminoBLM], the “Antimicrobial potency of Cu--free compound, against Mycobacterium smegmatis ATCC 607” value in data set [1] was found to be 268 mcg potency per mg. In addition, the “50% growth inhibition concentration (ID50) of Cu--free compound against cultured Hela cell” value with Hela S3 cells came to 0.13 µg/mL. Further, in the data set on Bacillus subtilis, the “Antimicrobial potency of Cu--free compound, against Bacillus subtilis” value is 49 mcg potency per mg. For the same molecule, in the data set on ICR strain mice, the “Grade of pulmonary fibrosis, %” value turned out to be 0%; the “Incidence of pulmonary fibrosis, %” value amounted to 0%; the “Incidence: number of mice suffering” value is reported as 0/9; the “Grade: total score of pulmonary fibrosis/total number of test animal” value is 0/27. In the data set on ICR strain mice, the “Grade of pulmonary fibrosis, Ratio” value is 0.00 and the “Incidence of pulmonary fibrosis, Ratio” value stood at 0.00.
Turning to `Cc1c(N)nc(C(CC(N)=O)NCC(N)C(N)=O)nc1C(=O)NC(C(=O)NC(C)C(O)C(C)C(=O)NC(C(=O)NCCc1nc(-c2nc(C(=O)NCCCN(C)CCCN(Cc3ccc(OCc4ccc(Cl)c(Cl)c4)c(OCc4ccc(Cl)c(Cl)c4)c3)Cc3ccc(OCc4ccc(Cl)c(Cl)c4)c(OCc4ccc(Cl)c(Cl)c4)c3)cs2)cs1)C(C)O)C(OC1OC(CO)C(O)C(O)C1OC1OC(CO)C(O)C(OC(N)=O)C1O)c1cnc[nH]1` (stereo not drawn) [compound 49, 3-{N--Methyl-N--[3'(bis(3",4"-di(m,p-dichlorobenzyloxy)benzyl)amino)propyl]amino}propylaminoBLM], in data set [1], the “Antimicrobial potency of Cu--free compound, against Mycobacterium smegmatis ATCC 607” value is given as 23 mcg potency per mg. Moreover, the “50% growth inhibition concentration (ID50) of Cu--free compound against cultured Hela cell” value in the data set on Hela S3 cells amounted to 0.063 µg/mL. In addition, the “Antimicrobial potency of Cu--free compound, against Bacillus subtilis” value in the data set on Bacillus subtilis is 8 mcg potency per mg. In addition, in the data set with ICR strain mice, the “Grade of pulmonary fibrosis, %” value stood at 0%; the “Incidence of pulmonary fibrosis, %” value amounted to 0%; the “Incidence: number of mice suffering” value is 0/9; the “Grade: total score of pulmonary fibrosis/total number of test animal” value is reported as 0/27. Besides, in the data set with ICR strain mice, the “Grade of pulmonary fibrosis, Ratio” value came out at 0.00 and the “Incidence of pulmonary fibrosis, Ratio” value is on record as 0.00.
For the molecule `Cc1c(N)nc(C(CC(N)=O)NCC(N)C(N)=O)nc1C(=O)NC(C(=O)NC(C)C(O)C(C)C(=O)NC(C(=O)NCCc1nc(-c2nc(C(=O)NCCCN(C)CCCN(Cc3ccc(OCc4ccc(Cl)cc4)c(OCc4ccc(Cl)cc4)c3)Cc3ccc(OCc4ccc(Cl)cc4)c(OCc4ccc(Cl)cc4)c3)cs2)cs1)C(C)O)C(OC1OC(CO)C(O)C(O)C1OC1OC(CO)C(O)C(OC(N)=O)C1O)c1cnc[nH]1` (stereo not drawn) [compound 48, 3-{N--Methyl-N--[3'-(bis(3",4"di(p-chlorobenzyloxy)benzyl)amino)propyl]amino}propylaminoBLM], the “Antimicrobial potency of Cu--free compound, against Mycobacterium smegmatis ATCC 607” value in data set [1] came to 14 mcg potency per mg. Moreover, in the data set on Hela S3 cells, the “50% growth inhibition concentration (ID50) of Cu--free compound against cultured Hela cell” value worked out at 0.058 µg/mL. Moreover, in the data set on Bacillus subtilis, the “Antimicrobial potency of Cu--free compound, against Bacillus subtilis” value is listed as 8 mcg potency per mg. Further, in the data set with ICR strain mice, the “Grade of pulmonary fibrosis, %” value is recorded as 0%; the “Incidence of pulmonary fibrosis, %” value is 0%; the “Incidence: number of mice suffering” value is 0/9; the “Grade: total score of pulmonary fibrosis/total number of test animal” value was 0/27. Moreover, in the data set with ICR strain mice, the “Grade of pulmonary fibrosis, Ratio” value stood at 0.00 and the “Incidence of pulmonary fibrosis, Ratio” value came out at 0.00.
